Measurements published in patent US11866518B2, “Bicyclic peptide ligands specific for TSLP” (BicycleTx Limited, priority 2020, dated 2024).
*1 amine or outer side, *2 acyl side, *3 side chain or, on linkers, in order; H or OH if unused. Where a SMILES comes first, the peptide text is derived from it. Bridges are numbered along the chain shown (N, C = ends). TATA = O=C(CC[*:1])N1CN(C(=O)CC[*:2])CN(C(=O)CC[*:3])C1

The compounds below were run against TSLP (Homo sapiens, UniProt Q969D9) (assay: Human TSLP Surface Plasmon Resonance (SPR) binding assay). Conditions: biotinylated human TSLP immobilized on streptavidin chip; 20° C.; steady-state or kinetic 1:1 fit; read-out: hTSLP SPR Kd.
Set-up: The resulting construct spCD33-6×HN-TEV-hTSLP(29-159)-Avi; 6xHN tag with TEV site (N, cleaved yes); made in house; host or cells: Expi293F cells

TSLP, sequence (Q969D9 29-159): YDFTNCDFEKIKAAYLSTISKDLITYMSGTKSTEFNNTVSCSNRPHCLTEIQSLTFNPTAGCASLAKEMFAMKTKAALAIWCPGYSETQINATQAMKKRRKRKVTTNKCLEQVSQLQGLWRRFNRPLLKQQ

SMILES	Kd
CC(C)C[C@@H]1NC(=O)[C@H](CO)NC(=O)[C@@H](NC(=O)[C@H](C)N)CSCCC(=O)N2CN3CN(C2)C(=O)CCSC[C@@H](C(=O)N[C@@H](C)C(N)=O)NC(=O)[C@H]([C@@H](C)O)NC(=O)[C@H](Cc2c[nH]c4ccccc24)NC(=O)[C@H](Cc2c[nH]c4ccccc24)NC(=O)[C@H](CC(N)=O)NC(=O)[C@H](Cc2c[nH]cn2)NC(=O)[C@H](CSCCC3=O)NC(=O)[C@H](CO)NC(=O)[C@H](Cc2c[nH]c3ccccc23)NC(=O)[C@@H]2CCCN2C(=O)[C@H](CC(=O)O)NC1=O [Example 229, A-(SEQ ID NO: 156)-A] (H-ACSLDPWSCHNWWTCA-NH2; linker 2-9-15 via TATA; N-terminus and C-terminus assumed)	9900 nM
CC(C)C[C@@H]1NC(=O)[C@H](C)NC(=O)[C@@H](NC(=O)[C@H](C)N)CSCCC(=O)N2CN3CN(C2)C(=O)CCSC[C@H](NC(=O)[C@H](C(C)C)NC(=O)[C@H](Cc2c[nH]c4ccccc24)NC(=O)[C@@H]2CCCN2C(=O)[C@H](CC(=O)O)NC1=O)C(=O)N1CCC[C@H]1C(=O)N[C@@H](CCC(N)=O)C(=O)N[C@@H](Cc1c[nH]c2ccccc12)C(=O)N[C@@H](Cc1c[nH]c2ccccc12)C(=O)N[C@@H](CC(=O)O)C(=O)N[C@H](C(=O)N[C@@H](C)C(N)=O)CSCCC3=O [Example 230, A-(SEQ ID NO: 157)-A] (H-ACALDPWVCPQWWDCA-NH2; linker 2-9-15 via TATA; N-terminus and C-terminus assumed)	960 nM
CC(C)C[C@@H]1NC(=O)[C@@H]2CSCCC(=O)N3CN(CN(C3)C(=O)CCSC[C@@H](C(=O)N[C@@H](C)C(N)=O)NC(=O)[C@H](CCC(=O)O)NC(=O)[C@@H]3CCCN3C(=O)[C@H](CCC(N)=O)NC(=O)[C@H](Cc3ccc(O)cc3)NC(=O)[C@H](CC(C)C)NC1=O)C(=O)CCSC[C@H](NC(=O)[C@H](C)N)C(=O)N[C@@H](CCC(N)=O)C(=O)N[C@@H](CCC(=O)O)C(=O)N[C@@H](Cc1c[nH]cn1)C(=O)N[C@@H](CC(=O)O)C(=O)N[C@@H](Cc1c[nH]c3ccccc13)C(=O)N[C@@H](Cc1ccc(O)cc1)C(=O)N2 [Example 231, A-(SEQ ID NO: 158)-A] (H-ACQEHDWYCLLYQPECA-NH2; linker 2-9-16 via TATA; N-terminus and C-terminus assumed)	1800 nM
CC[C@H](C)[C@@H]1NC(=O)[C@H](Cc2c[nH]c3ccccc23)NC(=O)[C@@H]2CSCCC(=O)N3CN(CN(C3)C(=O)CCSC[C@@H](C(=O)N[C@@H](C)C(N)=O)NC(=O)[C@H](CC(C)C)NC(=O)[C@H]([C@@H](C)O)NC(=O)[C@H](CCCCN)NC(=O)[C@H](Cc3ccccc3)NC1=O)C(=O)CCSC[C@H](NC(=O)[C@H](C)N)C(=O)N[C@@H](CC(=O)O)C(=O)N[C@@H](CCC(=O)O)C(=O)N[C@@H](CC(C)C)C(=O)N[C@@H](CC(=O)O)C(=O)N[C@@H]([C@@H](C)CC)C(=O)N1CCC[C@H]1C(=O)N2 [Example 232, A-(SEQ ID NO: 159)-A] (H-ACDELDIPCWIFKTLCA-NH2; linker 2-9-16 via TATA; N-terminus and C-terminus assumed)	8300 nM
CC(=O)N[C@H]1CSCCC(=O)N2CN3CN(C2)C(=O)CCSC[C@@H]2NC(=O)[C@H](CC(=O)O)NC(=O)[C@H](CCC(=O)O)NC(=O)[C@H](CC(C)C)NC(=O)[C@H](CCn4cc(nn4)CC[C@H](NC(=O)[C@H](Cc4c[nH]c5ccccc45)NC2=O)C(=O)NCC(=O)N[C@@H](Cc2ccc(F)cc2)C(=O)N[C@H](C(N)=O)CSCCC3=O)NC(=O)[C@H](CCC(N)=O)NC1=O [Example 249]	1200 nM
